Here are results for six compounds from US20130156708A1, “PHENOL DERIVATIVES AS ANTIMICROBIAL AGENTS” (Symrise AG, priority 2011, published 2013).

The nature of test [1]: Taste test in alcohol free mouth wash formulation. Conditions: compound 0.1%, peppermint Optamint Flavor 0.15%, versus sample without compound. The text has this:
The compounds of formulae (IIa) and (IIIa) were further tested in oral care formulations. In particular, an alcohol free mouth wash formulation in combination with a standard peppermint flavor (Optamint® Flavor, dosage 0.15%) plus compound of formula (IIa) or (IIIa), respectively, (dosage 0.1%) was compared with a sample without any compound of formula (I), but being otherwise identically composed. The taste impressions of the samples including the respective compound of formula (IIa) or (IIIa) are described as follows: […]

Test [2] deals with microorganisms relevant for home and personal care. Put plainly: Minimum inhibitory concentration, further microorganisms of Table 2. In kind it is cell-based. An excerpt:
(§1) Assessment of minimum inhibitory concentrations of thymol and 4-prenylphenol against versus microorganisms relevant for home and personal care:
(§2) The results of comparative assessment of minimum inhibitor concentration for both thymol and 4-prenylphenol are listed in Table 2.

Test [3] deals with C. albicans. Put plainly: Minimum inhibitory concentration, C. albicans. Type of test: cell-based, Candida albicans. Particulars: for MIC: Candida albicans.
Text: as §1, §2

Test [4] has as its system E. coli. Kind of test: Fast time-kill test, inactivation time for 99.9% kill, E. coli. In kind it is cell-based. Conditions: Escherichia coli; 0.1% concentration; averages of four independent experiments. The protocol: (§3) This protocol gives an exact description on how to perform a fast time-kill experiment. Fast time-kill experiments serve to determine the antimicrobial kill activity of a specific substance or substance mixture against a particular microorganism or a mixture of microorganisms. To kill (synonymous: to inactivate) a microorganism means that after the treatment, the microorganism has permanently lost its capacity to grow or to replicate.
(§4) Microorganisms are grown in suitable growth medium allowing for exponential growth. For E. coli, Salmonella spp., S. aureus, P. aeruginosa, and for C. albicans tryptic soy broth medium is used. One hundred ml Erlenmeyer flasks containing 20 ml growth medium are inoculated with 10^5 to 10^8 microbial cells/ml and incubated overnight under continuous shaking (120 rpm) at a temperature allowing for exponential growth, usually between 20 and 37° C. The temperature is chosen in such a way to ensure the exponential growth for the used microorganisms, for E. coli, Salmonella spp., S. aureus, P. aeruginosa, and for C. albicans 37° C. is used.
(§5) After reaching the stationary growth phase, 100 μl of this culture are transferred in a second Erlenmeyer flask containing 20 ml of the same growth medium. This culture is shaken for further (preferably to up to 7 hours) under identical conditions as described above. Subsequently, this culture is diluted in the same growth medium to 10^5 to 10^9, preferably to 10^6 to 10^8 cells/ml. With this suspension of microorganism (named “microorganism working suspension”) the time-kill test is performed.
(§6) Test substances are dissolved in DMSO, EtOH and/or H2O, preferably in H2O, to prepare a 100× concentrated stock solution. […]
(§7) Samples are taken from reaction tubes after defined time intervals (preferably 1, 2 and 5 min) to determine the number of surviving microorganisms. […] The number of surviving microorganisms is determined by aspiring 100 μl volumes from reaction tubes and mixing it immediately with 900 μl growth medium to prepare a 10^−1 dilution. […]

The subject of test [5] is S. aureus. Put plainly: Synergistic activity (Kull) in fast time-kill experiments, S. aureus. Type of test: cell-based, Staphylococcus aureus. The procedure: (§8) This protocol gives an exact description on how to perform a fast time-kill experiment. Fast time-kill experiments serve to determine the antimicrobial kill activity of a specific substance or substance mixture against a particular microorganism or a mixture of microorganisms.
as §4, §5
(§9) Test substances are dissolved in DMSO, EtOH and/or H2O, preferably in H2O, to prepare a 100× concentrated stock solution. In case the test substance is not completely soluble in H2O, the solvents are chosen in to ensure a complete dissolution of the test substance, the chosen concentration of DMSO and EtOH being as low as possible. For solid substances, complete dissolution has to be ensured. […] Preferably, the concentrations of the test substances in the 100× concentrated stock solution are between 1 and 100%, corresponding to 0.01 to 1% in the final test. The amount of the 100× concentrated stock solution in the final test should not exceed 1% in order to limit the concentration of DMSO or EtOH to 1% in the final test.
(§10) Fast time-kill tests are performed in 1000 μl volumes in 1.5 ml plastic reaction tubes (Eppendorf). The test is started by mixing (in this particular order) 100 μl microorganism working suspension with 890 μl tryptic soy broth growth medium containing 0.1% Tween® 80 and 10 μl 100× concentrated stock solution of test substances. Controls are included that are prepared as described above, but using 100× stock solution without test substances. During the test, tubes are incubated at the same temperature as the microorganisms were grown, usually 20 to 37° C. (for E. coli, Salmonella spp., S. aureus, P. aeruginosa, and for C. albicans 37° C. is used) in an Eppendorf Thermomixer and are vigorously shaken at 1400 rpm.
(§11) Samples are taken from reaction tubes after defined time intervals (preferably 1, 2 and 5 min) to determine the number of surviving microorganisms. At time 0 (immediately after starting the test) samples are taken from control tubes to determine the initial number of microorganisms in the test. The number of surviving microorganisms is determined by aspiring 100 μl volumes from reaction tubes and mixing it immediately with 900 μl growth medium to prepare a 10^−1 dilution. Further dilutions are prepared in this way from 10^−2 to 10^−4. One hundred μl volumes of the different dilutions are plated on tryptic soy broth agar plates and incubated for up to 48 h at the same temperature as the microorganisms were grown, usually 20 to 37° C. (for E. coli, Salmonella spp., S. aureus, P. aeruginosa, and for C. albicans 37° C. is used). Colonies grown on plates are counted and the numbers of surviving microorganisms are calculated for the different treatments and time points. For substances with low minimum inhibitory concentrations (MIC), sufficient dilution below the concentration of the MIC value has to be ensured.

In test [6] the test system is E. coli. Kind of test: Minimum inhibitory concentration, E. coli. In kind it is cell-based, Escherichia coli. Particulars: for MIC: Escherichia coli.
Text: as §1, §2

Test [7] deals with S. aureus. Put plainly: Minimum inhibitory concentration, S. aureus. Type of test: cell-based, Staphylococcus aureus. Conditions: for MIC: Staphylococcus aureus.
Text: as §1, §2

Test [8] is described as follows: Taste test in silica toothpaste formulation. Particulars: compound 0.1%, spearmint Optamint Flavor 1%, versus sample without compound. An excerpt:
A silica toothpaste formulation in combination with a standard spearmint flavour (Optamint® Flavor, dosage 1%) plus the respective compound of formula (IIa) or (IIb) dosage 0.1% was compared to a sample without such compound of formula (I). The taste impressions of the sample including the compound of formula (IIa) or (IIb), respectively, are described as follows: […]

In test [9] the test system is S. aureus. Kind of test: Fast time-kill test, inactivation time for 99.9% kill, S. aureus. Type of test: cell-based. Conditions: Staphylococcus aureus; 0.1% concentration; averages of four independent experiments. The protocol: as §3, §4, §5, §6, §7
Test [10] deals with Aspergillus niger. Kind of test: Minimum inhibitory concentration, A. niger. Type of test: cell-based. Conditions: for MIC: Aspergillus niger.
In test [11] the test system is E. coli. Kind of test: Synergistic activity (Kull) in fast time-kill experiments, E. coli. In kind it is cell-based, Escherichia coli. The protocol: as §8, §4, §5, §9, §10, §11
The test system of test [12] is C. albicans. Kind of test: Fast time-kill test, inactivation time for 99.9% kill, C. albicans. Type of test: cell-based, Candida albicans. Conditions: Candiada albicans; 0.1% concentration; averages of four independent experiments. The procedure:
as §3, §4, §5, §6, §7

For test [13], the system named is E. coli, S. aureus and C. albicans. Put plainly: Fast time-kill test, statements of the text over all investigated microorganisms. In kind it is cell-based. Particulars: 0.1% concentration, span over E. coli, averages of four independent experiments. The protocol:
as §3
Microorganisms are grown in suitable growth medium allowing for exponential growth. For E. coli, Salmonella spp., S. aureus, P. aeruginosa, and for C. albicans tryptic soy broth medium is used. One hundred ml Erlenmeyer flasks containing 20 ml growth medium are inoculated with 10^5 to 10^8 microbial cells/ml and incubated overnight under continuous shaking (120 rpm) at a temperature allowing for exponential growth, usually between 20 and 37° C. […]
as §7

Values after ≈ are worked out from the molar mass of the structure shown.

`CC(C)=CCc1ccccc1O` [IIIa, 2-(3-Methylbut-2-enyl)phenol]: the “numbing/tingling feeling on the tongue” value in test [1] is “clearly leaves a numbing/tingling feeling on the tongue”.
In the case of `CC(C)=CCc1ccc(O)cc1` [IIa, 4-(3-Methylbut-2-enyl)phenol], the MIC – broadly, the lowest concentration found to suppress growth – in test [2] (Corynebacterium xerosis) is 125 µg/mL (≈ 771 µM); in test [2] (Fusobacterium nucleatum), 64 µg/mL (≈ 394 µM); in test [2] (Malassezia furfur), 1000 µg/mL (≈ 6160 µM); in test [2] (Porphyromonas gingivalis), 64 µg/mL (≈ 394 µM); in test [2] (Pseudomonas aeruginosa), more than 1000 µg/mL; in test [2] (Salmonalla enteritidis) it was 125 µg/mL (≈ 771 µM). Moreover, the minimal inhibitory concentration (MIC) in test [2] (Staphylococcus epidermidis) is 125 µg/mL (≈ 771 µM); in test [2] (Streptococcus mutans), 125 µg/mL (≈ 771 µM); in [3] it was 125 µg/mL (≈ 771 µM); in test [6], 125 µg/mL (≈ 771 µM); in test [7], 125 µg/mL (≈ 771 µM); in test [10] it was 64 µg/mL (≈ 394 µM). The “minimum inhibitory concentration compared with Thymol” value in [3] (C. albicans) is listed as “a factor of two lower”; in [6] (E. coli), “equal to the one of Thymol”; in [7] (S. aureus), “equal to the one of Thymol”. For the same compound, the “Inactivation time for 99.9% kill” value is recorded as 1.3 min in [4], 1.2 min in test [9] and 1.4 min in test [12]. In addition, the Inactivation rate k worked out at 1.2 min⁻¹ in test [5] (4-Prenylphenol 400 ppm) and 0.94 min⁻¹ in test [11] (4-Prenylphenol 250 ppm). The “Inactivation time T99.9%” value in [5] (4-Prenylphenol 400 ppm) is recorded as 5.6 min; in [11] (4-Prenylphenol 250 ppm) it was 7.4 min. Besides, the results for the “Reduction of surviving microorganisms” value in test [5] (4-Prenylphenol 400 ppm) and in test [11] (4-Prenylphenol 250 ppm) were 0.29 and 0.39, respectively. The “numbing/tingling feeling on the tongue” value in test [1] and in test [8] was “clearly leaves a numbing/tingling feeling on the tongue” in each case. Also, in [10], the “antimicrobial activity against the mould A. niger” value is “strong antimicrobial activity”.
With `C=C(C)CCc1ccc(O)cc1` [IIb, 4-(3-Methylbut-3-enyl)phenol], the “numbing/tingling feeling on the tongue” value in test [8] is given as “clearly leaves a numbing/tingling feeling on the tongue”.
With `COC(=O)c1ccc(O)cc1` [Methylparaben, reference compound], in test [5] (Methylparaben 5000 ppm), the Inactivation rate k was determined as 0.40 min⁻¹, the “Inactivation time T99.9%” value amounted to 18.1 min and the “Reduction of surviving microorganisms” value is given as 0.67. Further, in test [11] (Methylparaben 2500 ppm), the Inactivation rate k was 0.09 min⁻¹, the “Inactivation time T99.9%” value is given as 89.1 min and the “Reduction of surviving microorganisms” value stood at 0.91.
In the case of `Cc1ccc(C(C)C)c(O)c1` [Thymol, reference compound], the MIC turned out to be 125 µg/mL (≈ 832 µM) in test [2] (Corynebacterium xerosis); 125 µg/mL (≈ 832 µM) in [2] (Fusobacterium nucleatum); 1000 µg/mL (≈ 6660 µM) in test [2] (Malassezia furfur); 125 µg/mL (≈ 832 µM) in [2] (Porphyromonas gingivalis); 1000 µg/mL (≈ 6660 µM) in [2] (Pseudomonas aeruginosa); 250 µg/mL (≈ 1660 µM) in test [2] (Salmonalla enteritidis). In addition, the MIC is 250 µg/mL (≈ 1660 µM) in test [2] (Staphylococcus epidermidis); 250 µg/mL (≈ 1660 µM) in test [2] (Streptococcus mutans); 250 µg/mL (≈ 1660 µM) in test [3]; 125 µg/mL (≈ 832 µM) in test [6]; 125 µg/mL (≈ 832 µM) in test [7]; 1000 µg/mL (≈ 6660 µM) in test [10]. The “Inactivation time for 99.9% kill” value worked out at 4.1 min in test [4], 4.9 min in test [9] and 8.7 min in [12].
On to `Oc1cc(Cl)ccc1Oc1ccc(Cl)cc1Cl` [Triclosan], for which the “Inactivation time for 99.9% kill” value in test [4], in test [9] and in test [12] was more than 100 min throughout. In [13], the “Inactivation time for a 99.9% kill” value is on record as more than 100 min.
